Reference: PubChem BioAssay (NCI)
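Values below derive from 48-hour exposures of cells grown in 96-well plates, with endpoints linearly interpolated between the two concentrations bracketing the appropriate inhibition level. GI50 = concentration required for 50% inhibition of growth. TGI: total growth inhibition.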

Key:
Assay in all cases: NCI anticancer screen, dose series, 48 h
NCI-H460 lung = tested on: NCI-H460 lung
CCRF-CEM leukemia = tested on: CCRF-CEM leukemia
NCI-H23 lung = tested on: NCI-H23 lung
PC-3 prostate = tested on: PC-3 prostate
BT-549 breast = tested on: BT-549 breast
HCT-116 colon = tested on: HCT-116 colon
SK-MEL-28 melanoma = tested on: SK-MEL-28 melanoma
MALME-3M melanoma = tested on: MALME-3M melanoma
MDA-MB-435 = tested on: MDA-MB-435
UACC-257 melanoma = tested on: UACC-257 melanoma
HS 578T breast = tested on: HS 578T breast
LOX IMVI melanoma = tested on: LOX IMVI melanoma
ACHN renal = tested on: ACHN renal
SR leukemia = tested on: SR leukemia
MOLT-4 leukemia = tested on: MOLT-4 leukemia
A498 renal = tested on: A498 renal
NCI-H522 lung = tested on: NCI-H522 lung
MDA-MB-468 breast = tested on: MDA-MB-468 breast
HCT-15 colon = tested on: HCT-15 colon
RXF 393 renal = tested on: RXF 393 renal
A549 NSCLC = tested on: A549 NSCLC
NCI-H226 lung = tested on: NCI-H226 lung
HT29 colon = tested on: HT29 colon
DU-145 prostate = tested on: DU-145 prostate
HOP-92 NSCLC = tested on: HOP-92 NSCLC
T-47D breast = tested on: T-47D breast
CAKI-1 renal = tested on: CAKI-1 renal
SF-539 CNS = tested on: SF-539 CNS
IGROV1 ovarian = tested on: IGROV1 ovarian
OVCAR-5 ovarian = tested on: OVCAR-5 ovarian
SNB-75 CNS = tested on: SNB-75 CNS
UACC-62 melanoma = tested on: UACC-62 melanoma
HCC-2998 colon = tested on: HCC-2998 colon
SK-OV-3 ovarian = tested on: SK-OV-3 ovarian
MCF7 breast = tested on: MCF7 breast
COLO 205 colon = tested on: COLO 205 colon
HOP-62 NSCLC = tested on: HOP-62 NSCLC
SNB-19 CNS = tested on: SNB-19 CNS
EKVX NSCLC = tested on: EKVX NSCLC
M14 melanoma = tested on: M14 melanoma
786-0 renal = tested on: 786-0 renal
OVCAR-4 ovarian = tested on: OVCAR-4 ovarian
U251 CNS = tested on: U251 CNS
KM12 colon = tested on: KM12 colon
OVCAR-3 ovarian = tested on: OVCAR-3 ovarian
SW-620 colon = tested on: SW-620 colon
SF-295 CNS = tested on: SF-295 CNS
SF-268 CNS = tested on: SF-268 CNS
SN12C renal = tested on: SN12C renal
MDA-MB-231 breast = tested on: MDA-MB-231 breast
OVCAR-8 ovarian = tested on: OVCAR-8 ovarian
K-562 leukemia = tested on: K-562 leukemia
HL-60(TB) leukemia = tested on: HL-60(TB) leukemia
UO-31 renal = tested on: UO-31 renal
RPMI-8226 leukemia = tested on: RPMI-8226 leukemia
TK-10 renal = tested on: TK-10 renal
SK-MEL-5 melanoma = tested on: SK-MEL-5 melanoma

Work on `Cc1ccc(NC(=O)[C@]23CCC(C)(C)CC2C2=CCC4[C@@]5(C)C[C@@H](O)[C@H](O)[C@@](C)(CO)C5CC[C@@]4(C)[C@]2(C)CC3)cc1` (some centres undefined) yielded a GI50 (NCI-H460 lung) of 10.5 µM, a TGI (NCI-H460 lung) of 23.1 µM and a GI50 (CCRF-CEM leukemia) of 11.1 µM. It also gave a TGI (CCRF-CEM leukemia) of 38.9 µM, a GI50 (NCI-H23 lung) of 12.7 µM and a TGI (NCI-H23 lung) of 26.8 µM. It also gave a GI50 (PC-3 prostate) of 5.46 µM, a TGI (PC-3 prostate) of 21.5 µM and a GI50 (BT-549 breast) of 12.4 µM. For the same compound, the TGI (BT-549 breast) was 25.4 µM, the GI50 (HCT-116 colon) was 7.24 µM and the TGI (HCT-116 colon) was 20 µM. It also gave a GI50 (SK-MEL-28 melanoma) of 13 µM, a TGI (SK-MEL-28 melanoma) of 26 µM and a GI50 (MALME-3M melanoma) of 12.1 µM. It also gave a TGI (MALME-3M melanoma) of 25.1 µM, a GI50 (MDA-MB-435) of 11.5 µM and a TGI (MDA-MB-435) of 23.7 µM. The GI50 (UACC-257 melanoma) was 12.9 µM, the TGI (UACC-257 melanoma) was 27.5 µM and the GI50 (HS 578T breast) was 12.4 µM. It also gave a TGI (HS 578T breast) of 48.6 µM, a GI50 (LOX IMVI melanoma) of 5.27 µM and a TGI (LOX IMVI melanoma) of 19.1 µM. It also gave a GI50 (ACHN renal) of 10.4 µM, a TGI (ACHN renal) of 22.1 µM and a GI50 (SR leukemia) of 5.58 µM. The TGI (SR leukemia) was greater than 100 µM, the GI50 (MOLT-4 leukemia) was 6.88 µM and the TGI (MOLT-4 leukemia) was 50.7 µM. It also gave a GI50 (A498 renal) of 14.1 µM, a TGI (A498 renal) of 27.4 µM and a GI50 (NCI-H522 lung) of 12.9 µM. For the same compound, the TGI (NCI-H522 lung) was 26.6 µM, the GI50 (MDA-MB-468 breast) was 4.52 µM and the TGI (MDA-MB-468 breast) was 18.1 µM. For the same compound, the GI50 (HCT-15 colon) was 6.9 µM, the TGI (HCT-15 colon) was 19.9 µM and the GI50 (RXF 393 renal) was 2.9 µM. The TGI (RXF 393 renal) was 11.6 µM, the GI50 (A549 NSCLC) was 12.9 µM and the TGI (A549 NSCLC) was greater than 100 µM. For the same compound, the GI50 (NCI-H226 lung) was 11 µM, the TGI (NCI-H226 lung) was 23.8 µM and the GI50 (HT29 colon) was 7.44 µM. For the same compound, the TGI (HT29 colon) was 20.1 µM, the GI50 (DU-145 prostate) was 15.2 µM and the TGI (DU-145 prostate) was 32.6 µM. For the same compound, the GI50 (HOP-92 NSCLC) was 8.43 µM, the TGI (HOP-92 NSCLC) was 23.1 µM and the GI50 (T-47D breast) was 6.94 µM. The TGI (T-47D breast) was 20.6 µM, the GI50 (CAKI-1 renal) was 5.1 µM and the TGI (CAKI-1 renal) was 20.4 µM. The GI50 (SF-539 CNS) was 12.7 µM, the TGI (SF-539 CNS) was 25.6 µM and the GI50 (IGROV1 ovarian) was 11.1 µM. It also gave a TGI (IGROV1 ovarian) of 23.8 µM, a GI50 (OVCAR-5 ovarian) of 12.8 µM and a TGI (OVCAR-5 ovarian) of 25.7 µM. The GI50 (SNB-75 CNS) was 1.88 µM, the TGI (SNB-75 CNS) was 31.4 µM and the GI50 (UACC-62 melanoma) was 6.8 µM. The TGI (UACC-62 melanoma) was 20.6 µM, the GI50 (HCC-2998 colon) was 6.91 µM and the TGI (HCC-2998 colon) was 21 µM. It also gave a GI50 (SK-OV-3 ovarian) of 13.9 µM, a TGI (SK-OV-3 ovarian) of 34 µM and a GI50 (MCF7 breast) of 4.12 µM. For the same compound, the TGI (MCF7 breast) was 15.5 µM, the GI50 (COLO 205 colon) was 12.1 µM and the TGI (COLO 205 colon) was 27.5 µM. The GI50 (HOP-62 NSCLC) was 14.3 µM, the TGI (HOP-62 NSCLC) was 29.1 µM and the GI50 (SNB-19 CNS) was 16.5 µM. It also gave a TGI (SNB-19 CNS) of 43.4 µM, a GI50 (EKVX NSCLC) of 9.25 µM and a TGI (EKVX NSCLC) of 23.9 µM. The GI50 (M14 melanoma) was 12.4 µM, the TGI (M14 melanoma) was 25.2 µM and the GI50 (786-0 renal) was 12.8 µM. For the same compound, the TGI (786-0 renal) was 26.4 µM, the GI50 (OVCAR-4 ovarian) was 7.81 µM and the TGI (OVCAR-4 ovarian) was 23.3 µM. The GI50 (U251 CNS) was 12.8 µM, the TGI (U251 CNS) was 25.5 µM and the GI50 (KM12 colon) was 12.8 µM. The TGI (KM12 colon) was 28.2 µM, the GI50 (OVCAR-3 ovarian) was 13.5 µM and the TGI (OVCAR-3 ovarian) was 27.3 µM. The GI50 (SW-620 colon) was 12.5 µM, the TGI (SW-620 colon) was 27.5 µM and the GI50 (SF-295 CNS) was 8.28 µM. For the same compound, the TGI (SF-295 CNS) was 21.4 µM, the GI50 (SF-268 CNS) was 10.2 µM and the TGI (SF-268 CNS) was 32.2 µM. The GI50 (SN12C renal) was 10.9 µM, the TGI (SN12C renal) was 23.1 µM and the GI50 (MDA-MB-231 breast) was 12.2 µM. For the same compound, the TGI (MDA-MB-231 breast) was 26.1 µM, the GI50 (OVCAR-8 ovarian) was 14.2 µM and the TGI (OVCAR-8 ovarian) was 35.5 µM. It also gave a GI50 (K-562 leukemia) of 12.1 µM, a TGI (K-562 leukemia) of 87.6 µM and a GI50 (HL-60(TB) leukemia) of 5.44 µM. It also gave a TGI (HL-60(TB) leukemia) of 36.5 µM, a GI50 (UO-31 renal) of 3.54 µM and a TGI (UO-31 renal) of 17 µM. It also gave a GI50 (RPMI-8226 leukemia) of 4.79 µM, a TGI (RPMI-8226 leukemia) of 25.8 µM and a GI50 (TK-10 renal) of 16.3 µM. The TGI (TK-10 renal) was 32 µM, the GI50 (SK-MEL-5 melanoma) was 6.45 µM and the TGI (SK-MEL-5 melanoma) was 19.3 µM.
